Measured values as given in patent US4272437A, “Antibacterial agents, and 4-thio azetidinone intermediates” (priority 1979, dated 1981).
≈ marks a conversion by molar mass, not a printed value. Where two headings read alike, the source gives them in different places.

Legend:
Str. pneumoniae A-9585 = assay: MIC, tube dilution, Streptococcus pneumoniae A9585; format: cell-based; conditions: Streptococcus pneumoniae, A9585, Str. pneumoniae A9585; overnight 37° C., Nutrient Broth; read-out: Minimum Inhibitory Concentration (M.I.C.)
Description: (§1) Representative compounds of the present invention were subjected to in vitro antibiotic screening against a variety of microorganisms.

Str. pyogenes A-9604 = assay: MIC, tube dilution, Streptococcus pyogenes A9604; format: cell-based; conditions: overnight 37° C., Nutrient Broth; for MIC: Streptococcus pyogenes, A9604, Str. pyogenes A9604, read-out: Minimum Inhibitory Concentration (M.I.C.)
Description: as §1

Staph. aureus A-9537 = assay: MIC, tube dilution, Staphylococcus aureus A9537; format: cell-based; conditions: overnight 37° C., Nutrient Broth; for MIC: Staphylococcus aureus, A9537, Staph. aureus A9537, read-out: Minimum Inhibitory Concentration (M.I.C.)
Description: as §1

[1] = tested on: Staph. aureus A-9537 and 50% serum; assay: MIC, tube dilution, Staph. aureus A9537 + 50% serum; format: cell-based, Staphylococcus aureus; conditions: Staphylococcus aureus, overnight 37° C., read-out: Minimum Inhibitory Concentration (M.I.C.)
Description: as §1

[2] = tested on: Staph. aureus (Pen-Res) A-9606; assay: MIC, tube dilution, Staphylococcus aureus A9606 (Pen-Res); format: cell-based; conditions: Staphylococcus aureus, overnight 37° C.
Description: as §1

[3] = tested on: Staph. aureus (Meth-Res) A-15097; assay: MIC, tube dilution, Staphylococcus aureus A15097 (Meth-Res); format: cell-based; conditions: overnight 37° C.; for MIC: Staphylococcus aureus
Description: as §1

Str. faecalis A-20688 = assay: MIC, tube dilution, Streptococcus faecalis A20688; format: cell-based; conditions: Enterococcus faecalis, A20688, Str. faecalis A20688; overnight 37° C.; read-out: Minimum Inhibitory Concentration (M.I.C.)
Description: as §1

E. coli A-15119 = assay: MIC, tube dilution, Escherichia coli A15119; format: cell-based; conditions: Escherichia coli, A15119, E. coli A15119; overnight 37° C.; read-out: Minimum Inhibitory Concentration (M.I.C.)
Description: as §1

E. coli A-20341-1 = assay: MIC, tube dilution, Escherichia coli A20341-1; format: cell-based
Description: as §1

K. pneumoniae A-15130 = assay: MIC, tube dilution, Klebsiella pneumoniae A15130; format: cell-based; conditions: Klebsiella pneumoniae, A15130, K. pneumoniae A15130; overnight 37° C.; read-out: Minimum Inhibitory Concentration (M.I.C.)
Description: as §1

[4] = tested on: Klebsiella species A20468; assay: MIC, tube dilution, Klebsiella species A20468; format: cell-based; conditions: Klebsiella species (K. pneumoniae) A20468; overnight 37° C.; read-out: Minimum Inhibitory Concentration (M.I.C.)
Description: as §1

Pr. mirabilis A-9900 = assay: MIC, tube dilution, Proteus mirabilis A9900; format: cell-based; conditions: Proteus mirabilis, A9900, Proteus mirabilis A9900; overnight 37° C.; read-out: Minimum Inhibitory Concentration (M.I.C.)
Description: as §1

Pr. morganii A-15153 = assay: MIC, tube dilution, Proteus morganii A15153; format: cell-based; conditions: Morganella morganii, A15153, Proteus morganii A15153; overnight 37° C.; read-out: Minimum Inhibitory Concentration (M.I.C.)
Description: as §1

Ser. marcescens A-20019 = assay: MIC, tube dilution, Serratia marcescens A20019; format: cell-based; conditions: Serratia marcescens, A20019, Serratia marcescens A20019; overnight 37° C.; read-out: Minimum Inhibitory Concentration (M.I.C.)
Description: as §1

Ent. cloacae A-9659 = assay: MIC, tube dilution, Enterobacter cloacae A9659; format: cell-based; conditions: Enterobacter cloacae, A9659, Enterobacter cloacae A9659; overnight 37° C.; read-out: Minimum Inhibitory Concentration (M.I.C.)
Description: as §1

Ent. cloacae A-9656 = assay: MIC, tube dilution, Enterobacter cloacae A9656; format: cell-based; conditions: overnight 37° C., read-out: Minimum Inhibitory Concentration (M.I.C.)
Description: as §1

Ps. aeruginosa A-9843A = assay: MIC, tube dilution, Pseudomonas aeruginosa A9843A; format: cell-based; conditions: Pseudomonas aeruginosa, A9843A, read-out: Minimum Inhibitory Concentration (M.I.C.), Pseudomonas aeruginosa A9843A; overnight 37° C.
Description: as §1

Ps. aeruginosa A-21213 = assay: MIC, tube dilution, Pseudomonas aeruginosa A21213; format: cell-based; conditions: overnight 37° C., read-out: Minimum Inhibitory Concentration (M.I.C.)
Description: as §1

Proteus rettgeri A21203 = assay: MIC, tube dilution, Proteus rettgeri A21203; format: cell-based; conditions: Providencia rettgeri, overnight 37° C., read-out: Minimum Inhibitory Concentration (M.I.C.)
Description: as §1

Proteus vulgaris A21559 = assay: MIC, tube dilution, Proteus vulgaris A21559; format: cell-based; conditions: Proteus vulgaris
Description: as §1

[5] = Staph. aureus A9606 (Pen-Res), read-out: Minimum Inhibitory Concentration (M.I.C.)
[6] = Staph. aureus A15097 (Meth-Res), read-out: Minimum Inhibitory Concentration (M.I.C.)
[7] = Escherichia coli, A203411, E. coli A20341-1; overnight 37° C.; read-out: Minimum Inhibitory Concentration (M.I.C.)
[8] = Enterobacter cloacae, A9656, Enterobacter cloacae A9656
[9] = A21203, Proteus rettgeri A21203
[10] = A21559, Proteus vulgaris A21559, overnight 37° C., read-out: Minimum Inhibitory Concentration (M.I.C.)
[11] = read-out: Minimum Inhibitory Concentration (M.I.C.), Staph. aureus A9606 (Pen-Res)
[12] = read-out: Minimum Inhibitory Concentration (M.I.C.), Staph. aureus A15097 (Meth-Res)
[13] = Escherichia coli, A203411; E. coli A20341-1; overnight 37° C.; read-out: Minimum Inhibitory Concentration (M.I.C.)

| SMILES | MIC (Str. pneumoniae A-9585) | MIC (Str. pyogenes A-9604) | MIC (Staph. aureus A-9537) | MIC [1] | MIC [2, 5] | MIC [3, 6] | MIC (Str. faecalis A-20688) | MIC (E. coli A-15119) | MIC (E. coli A-20341-1; [7]) | MIC (K. pneumoniae A-15130) | MIC [4] | MIC (Pr. mirabilis A-9900) | MIC (Pr. morganii A-15153) | MIC (Ser. marcescens A-20019) | MIC (Ent. cloacae A-9659) | MIC (Ent. cloacae A-9656; [8]) | MIC (Ps. aeruginosa A-9843A) | MIC (Proteus rettgeri A21203; [9]) | MIC (Proteus vulgaris A21559; [10]) | MIC (Ps. aeruginosa A-21213; Pseudomonas aeruginosa A21213) | also measured |
| --- | --- | --- | --- | --- | --- | --- | --- | --- | --- | --- | --- | --- | --- | --- | --- | --- | --- | --- | --- | --- | --- |
| C[C@@H](O)[C@H]1C(=O)N2C(C(=O)O)=C(COCCN)S[C@H]12 (relative stereo) [66,96] | 0.03 µg/mL (≈ 0.104 µM) | 0.03 µg/mL (≈ 0.104 µM) | 0.06 µg/mL (≈ 0.208 µM) | 0.5 µg/mL | 0.25 µg/mL (≈ 0.867 µM) | 1 µg/mL (≈ 3.47 µM) | 4 µg/mL (≈ 13.9 µM) | 0.5 µg/mL (≈ 1.73 µM) | 0.5 µg/mL (≈ 1.73 µM) | 2 µg/mL (≈ 6.94 µM) | 2 µg/mL (≈ 6.94 µM) | 1 µg/mL (≈ 3.47 µM) | 4 µg/mL (≈ 13.9 µM) | 2 µg/mL (≈ 6.94 µM) | 8 µg/mL (≈ 27.7 µM) | 2 µg/mL (≈ 6.94 µM) | 16 µg/mL (≈ 55.5 µM) | 2 µg/mL (≈ 6.94 µM) | 1 µg/mL (≈ 3.47 µM) |  | MIC (Ps. aeruginosa A-21213; Pseudomonas aeruginosa, A21213, Pseudomonas aeruginosa A21213): 8 µg/mL (≈ 27.7 µM) |
| CC1=C(C(=O)O)N2C(=O)[C@@H]([C@@H](C)O)[C@H]2S1 (relative stereo) [Example 58, (1'R,5R,6R) and (1'S,5S,6S) 6-(1'-Hydroxy-1'-ethyl)-2-methylpenem-3-carboxylic Acid (isomer D)] |  |  |  |  |  |  |  |  |  |  |  |  |  |  |  |  |  |  |  |  | Minimum Inhibitory Concentration (M.I.C.) (Str. pyogenes A-9604; Str. pyogenes A9604): 2 µg/mL; Minimum Inhibitory Concentration (M.I.C.) (Staph. aureus A-9537; Staph. aureus A9537): 4 µg/mL; Minimum Inhibitory Concentration (M.I.C.) ([3]; Staph. aureus A15097 (Meth-Res)): 16 µg/mL |
| CC1=C(C(=O)O)N2C(=O)[C@H]([C@H](C)O)[C@H]2S1 (relative stereo) [Example 59, (1'S,5R,6S and 1'R,5S,6R) 6-(1'-Hydroxy-1'-ethyl)-2-methyl penem-3-carboxylic acid (isomer C)] | 32 µg/mL (≈ 140 µM) | 125 µg/mL (≈ 545 µM) | > 125 µg/mL | > 63 µg/mL |  |  | > 125 µg/mL | > 125 µg/mL |  | > 125 µg/mL | > 125 µg/mL | > 125 µg/mL | > 125 µg/mL | > 125 µg/mL | > 125 µg/mL |  | > 125 µg/mL |  |  | > 125 µg/mL | MIC [2, 11]: > 125 µg/mL; MIC [3, 12]: > 125 µg/mL; MIC (E. coli A-20341-1; [13]): > 125 µg/mL; MIC (Ent. cloacae A-9656; Enterobacter cloacae A9656): > 125 µg/mL; MIC (Proteus rettgeri A21203; Proteus rettgeri A21203): > 125 µg/mL; MIC (Proteus vulgaris A21559; A21559, read-out: Minimum Inhibitory Concentration (M.I.C.)): > 125 µg/mL |
| CC1=C(C(=O)O)N2C(=O)[C@@H]([C@H](C)O)[C@H]2S1 (relative stereo) [Example 61, (1'S,5R,6R and 1'R,5S,6S) 6-(1'-Hydroxy-1'-ethyl)-2-methylpenem-3-carboxylic Acid (isomer A)] | 0.03 µg/mL (≈ 0.131 µM) | 0.06 µg/mL (≈ 0.262 µM) | 0.5 µg/mL (≈ 2.18 µM) | 4 µg/mL | 1 µg/mL (≈ 4.36 µM) | 2 µg/mL (≈ 8.72 µM) | 2 µg/mL (≈ 8.72 µM) | 2 µg/mL (≈ 8.72 µM) | 8 µg/mL (≈ 34.9 µM) | 8 µg/mL (≈ 34.9 µM) | 63 µg/mL (≈ 275 µM) | 2 µg/mL (≈ 8.72 µM) | 8 µg/mL (≈ 34.9 µM) | 8 µg/mL (≈ 34.9 µM) | 8 µg/mL (≈ 34.9 µM) | 32 µg/mL (≈ 140 µM) | 63 µg/mL (≈ 275 µM) | 2 µg/mL (≈ 8.72 µM) | 4 µg/mL (≈ 17.4 µM) |  |  |
| O=C(O)C1=C(C2CC2)SC2CC(=O)N12 (stereo not drawn) [Example 14, 2-Cyclopropylpenem-3-carboxylic Acid] | 0.06 µg/mL (≈ 0.284 µM) | 0.25 µg/mL (≈ 1.18 µM) | 0.13 µg/mL (≈ 0.615 µM) | 16 µg/mL |  | 2 µg/mL (≈ 9.47 µM) | 63 µg/mL (≈ 298 µM) | 4 µg/mL (≈ 18.9 µM) | 63 µg/mL (≈ 298 µM) | 16 µg/mL (≈ 75.7 µM) | > 125 µg/mL | 4 µg/mL (≈ 18.9 µM) | 16 µg/mL (≈ 75.7 µM) | 8 µg/mL (≈ 37.9 µM) | 16 µg/mL (≈ 75.7 µM) | 16 µg/mL (≈ 75.7 µM) | 125 µg/mL (≈ 592 µM) | 4 µg/mL (≈ 18.9 µM) |  | 125 µg/mL (≈ 592 µM) |  |
| O=C([O-])C1=C(CO)S[C@@H]2CC(=O)N12.[Na+] [Preparation 20, Sodium 2-Hydroxymethylpenem-3-carboxylate] | 0.25 µg/mL | 1 µg/mL | 2 µg/mL | 16 µg/mL |  |  | > 125 µg/mL | 16 µg/mL |  | 63 µg/mL | > 125 µg/mL | 16 µg/mL | 32 µg/mL | 32 µg/mL | 63 µg/mL |  | 125 µg/mL |  |  | > 125 µg/mL | MIC [2, 11]: 4 µg/mL; MIC [3, 12]: 8 µg/mL; MIC (E. coli A-20341-1; [13]): 63 µg/mL; MIC (Ent. cloacae A-9656; Enterobacter cloacae A9656): 32 µg/mL; MIC (Proteus rettgeri A21203; Proteus rettgeri A21203): 32 µg/mL |
